Source: US20260308145A1, “CDK2 INHIBITORS AND METHODS OF USING SAME” (Shenzhen lonova Life Science Co., Ltd., priority 2023, published 2026)

Assays:
Type in all cases: biochemical
CDK1/cyclinB1 = target: T1, CDK1/cyclinB1 (Homo sapiens, UniProt P06493); assay: Cyclin-dependent kinase activity assay (continuous ATP coupling assay), CDK1/cyclinB1; conditions: CDK1/cyclinB1 10 nM, ATP 200 μM, Histone1 copeptide 100 μM, 15 min preincubation, pH 7.5, 1% DMSO
T1 construct: purchased Carna Biosciences 04-102
Procedure: (§1) Cyclin-dependent kinase activity assay was measured by continuous ATP coupling assay in which ADP generated by kinase catalyzed phosphorylation was converted back to ATP by consuming phosphoenolpyruvate (PEP) and NADH catalyzed by pyruvate kinase/lactate dehydrogenase (PK/LDH). The assay compositions (see, Table 1) consist of one of the kinases, including CDK1/cyclinB1, CDK2/cyclinE1, CDK4/cyclinD3, and CDK6/cyclinD3 at the designated concentration, ATP at the corresponding Km of the kinase, copeptide and the ATP coupling system of PEP, NADH and PK/LDH. The assay was conducted in a reaction buffer of 20 mM Tris (pH 7.5) with 50 mM NaCl, 0.5 mM DTT and 0.04% BSA, and results were monitored continuously by fluorescence decrease of NADH with excitation at 340 nm and emission at 460 nm. Linear regression of the resulting reaction time traces gave reaction velocities.
(§2) For inhibition assay, compounds were first serial diluted in a 1:3 ratio from 10 μM to 0.05 nM using 10× reaction buffer. One of the CDK kinase was then introduced to compounds solution and incubated for 15 min. Finally, the compositions of ATP coupling system were introduced to the resulting solution to initiate the reaction. The final reaction mixture was in 1× reaction assay buffer with 1% DMSO. The half-maximal inhibition concentrations (IC50) for compounds were determined by fitting the plots of reaction velocity against compound concentration with 4-variable IC50 equation. The inhibition constants (Ki) were determined by fitting the same plots with quadratic/Morrison equation. Data were analyzed using commercially available software Graphpad Prism.
(§3) Exemplary results are presented as calculated IC50 values. • A: IC50≤10 nM • B: IC50>10 nM and IC50<100 nM • C: IC50≥100 nM

CDK2/cyclinE1 = target: T2, CDK2/cyclinE1 (Homo sapiens, UniProt P24941); assay: Cyclin-dependent kinase activity assay (continuous ATP coupling assay), CDK2/cyclinE1; conditions: CDK2/cyclinE1 5 nM, ATP 300 μM, Rb copeptide 100 μM, 15 min preincubation, pH 7.5, 1% DMSO
T2 construct: purchased Carna Biosciences 04-165
Procedure: as §1, §2, §3

CDK4/cyclinD3 = target: T3, CDK4/cyclinD3 (Homo sapiens, UniProt P11802); assay: Cyclin-dependent kinase activity assay (continuous ATP coupling assay), CDK4/cyclinD3; conditions: CDK4/cyclinD3 60 nM, ATP 500 μM, Rb copeptide 500 μM, 15 min preincubation, pH 7.5, 1% DMSO
T3 construct: purchased Carna Biosciences 04-105
Procedure: as §1, §2, §3

CDK6/cyclinD3 = target: T4, CDK6/cyclinD3 (Homo sapiens, UniProt Q00534); assay: Cyclin-dependent kinase activity assay (continuous ATP coupling assay), CDK6/cyclinD3; conditions: CDK6/cyclinD3 25 nM, ATP 500 μM, Rb copeptide 500 μM, 15 min preincubation, pH 7.5, 1% DMSO
T4 construct: purchased Carna Biosciences 04-107
Procedure: as §1, §2, §3

T3 sequence (P11802 whole entry): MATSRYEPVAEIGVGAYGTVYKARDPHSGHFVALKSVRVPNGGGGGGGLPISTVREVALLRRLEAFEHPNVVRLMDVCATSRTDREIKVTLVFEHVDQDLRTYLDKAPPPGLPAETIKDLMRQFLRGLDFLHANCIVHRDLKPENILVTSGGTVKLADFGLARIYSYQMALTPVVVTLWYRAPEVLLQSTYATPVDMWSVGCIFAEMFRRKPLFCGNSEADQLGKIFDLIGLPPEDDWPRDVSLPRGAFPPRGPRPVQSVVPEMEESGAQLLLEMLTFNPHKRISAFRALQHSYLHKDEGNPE
T3 sequence (P30281 whole entry partner): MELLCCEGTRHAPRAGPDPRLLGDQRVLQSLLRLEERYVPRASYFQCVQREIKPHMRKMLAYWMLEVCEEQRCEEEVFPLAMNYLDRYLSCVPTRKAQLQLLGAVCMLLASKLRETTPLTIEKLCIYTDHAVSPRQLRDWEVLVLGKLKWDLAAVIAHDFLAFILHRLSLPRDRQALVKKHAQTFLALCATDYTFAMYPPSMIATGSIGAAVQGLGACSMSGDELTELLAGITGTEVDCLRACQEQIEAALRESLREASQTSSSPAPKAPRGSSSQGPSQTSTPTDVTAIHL
T4 sequence (Q00534 whole entry): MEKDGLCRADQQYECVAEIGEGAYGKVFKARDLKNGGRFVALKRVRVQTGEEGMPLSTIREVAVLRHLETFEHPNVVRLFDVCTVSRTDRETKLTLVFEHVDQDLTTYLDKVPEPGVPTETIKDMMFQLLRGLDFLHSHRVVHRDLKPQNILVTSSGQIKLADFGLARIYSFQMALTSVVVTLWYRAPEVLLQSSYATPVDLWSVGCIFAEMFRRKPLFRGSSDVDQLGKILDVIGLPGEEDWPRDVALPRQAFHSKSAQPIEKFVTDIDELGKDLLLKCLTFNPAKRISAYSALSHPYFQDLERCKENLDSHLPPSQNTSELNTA
T4 sequence (P30281 whole entry partner): as the sequence (P30281 whole entry partner) above
T1 sequence (P06493 whole entry): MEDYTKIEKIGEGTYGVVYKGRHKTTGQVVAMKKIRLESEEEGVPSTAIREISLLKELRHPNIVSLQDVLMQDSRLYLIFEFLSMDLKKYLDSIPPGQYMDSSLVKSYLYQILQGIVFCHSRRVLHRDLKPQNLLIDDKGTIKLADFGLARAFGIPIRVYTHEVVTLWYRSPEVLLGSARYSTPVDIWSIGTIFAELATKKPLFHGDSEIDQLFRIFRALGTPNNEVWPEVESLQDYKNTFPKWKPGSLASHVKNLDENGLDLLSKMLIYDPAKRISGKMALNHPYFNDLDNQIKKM
T1 sequence (P14635 whole entry partner): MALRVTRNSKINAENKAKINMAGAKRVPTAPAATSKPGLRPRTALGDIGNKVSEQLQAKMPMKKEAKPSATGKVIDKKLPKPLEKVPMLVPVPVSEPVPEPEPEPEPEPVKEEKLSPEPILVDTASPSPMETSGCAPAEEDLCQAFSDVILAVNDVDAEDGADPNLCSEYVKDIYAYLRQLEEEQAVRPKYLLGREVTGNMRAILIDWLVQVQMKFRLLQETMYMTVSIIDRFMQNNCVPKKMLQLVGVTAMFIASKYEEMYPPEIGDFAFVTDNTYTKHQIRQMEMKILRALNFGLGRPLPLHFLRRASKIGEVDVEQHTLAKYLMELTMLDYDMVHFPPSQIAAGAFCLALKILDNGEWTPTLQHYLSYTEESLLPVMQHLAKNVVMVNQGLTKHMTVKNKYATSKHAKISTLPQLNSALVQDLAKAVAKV

| SMILES | IC50 (CDK1/cyclinB1) [µM] | IC50 (CDK2/cyclinE1) [µM] | IC50 (CDK4/cyclinD3) [µM] | IC50 (CDK6/cyclinD3) [µM] |
| --- | --- | --- | --- | --- |
| CNS(=O)(=O)c1ccc(Nc2ncc(C(F)(F)F)c(-n3cc(C4=CCCC4)cn3)n2)cc1 [Example 12, 4-((4-(4-(cyclopent-1-en-1-yl)-1H-pyrazol-1-yl)-5-(trifluoromethyl)pyrimidin-2-yl)amino)-N-methylbenzenesulfonamide] | ≥ 0.1 | 0.01 to 0.1 | 0.01 to 0.1 | ≥ 0.1 |
| CNS(=O)(=O)c1ccc(Nc2ncc(C(F)(F)F)c(-n3cc(C4CCNCC4)cn3)n2)cc1 [Example 13] | 0.01 to 0.1 | ≤ 0.01 | 0.01 to 0.1 | 0.01 to 0.1 |
| CNS(=O)(=O)c1ccc(Nc2ncc(C(F)(F)F)c(-n3cc(C4CCN(C(C)=O)CC4)cn3)n2)cc1 [Example 14] | ≥ 0.1 | 0.01 to 0.1 | 0.01 to 0.1 | ≥ 0.1 |
| CNS(=O)(=O)c1ccc(Nc2ncc(C(F)(F)F)c(-n3cc(C4CNC4)cn3)n2)cc1 [Example 15] | 0.01 to 0.1 | ≤ 0.01 | 0.01 to 0.1 | 0.01 to 0.1 |
| CNS(=O)(=O)c1ccc(Nc2ncc(C(F)(F)F)c(-n3cccn3)n2)cc1 [Example 16, N-methyl-4-[[4-pyrazol-1-yl-5-(trifluoromethyl)pyrimidin-2-yl]amino]benzene sulfonamide] | ≥ 0.1 | ≤ 0.01 | ≥ 0.1 | ≥ 0.1 |
| [2H]C([2H])([2H])NS(=O)(=O)c1ccc(Nc2ncc(C(F)(F)F)c(-n3cccn3)n2)cc1 [Example 17] | ≥ 0.1 | ≤ 0.01 | ≥ 0.1 | ≥ 0.1 |
| NS(=O)(=O)c1ccc(Nc2ncc(C(F)(F)F)c(-n3cccn3)n2)cc1 [Example 18] | ≥ 0.1 | ≤ 0.01 | ≥ 0.1 | ≥ 0.1 |
| CS(=O)(=O)N1CCC(Nc2ncc(C(F)(F)F)c(-n3cccn3)n2)CC1 [Example 19] | ≥ 0.1 | ≤ 0.01 | 0.01 to 0.1 | 0.01 to 0.1 |
| CNS(=O)(=O)c1ccc(Nc2ncc(C(F)F)c(-n3cccn3)n2)cc1 [Example 20] | ≥ 0.1 | 0.01 to 0.1 | ≥ 0.1 | ≥ 0.1 |
| CNS(=O)(=O)c1ccc(Nc2ncc(F)c(-n3cccn3)n2)cc1 [Example 21] | ≥ 0.1 | 0.01 to 0.1 | ≥ 0.1 | ≥ 0.1 |
| CNS(=O)(=O)c1ccc(Nc2ncc(C)c(-n3cccn3)n2)cc1 [Example 22] | ≥ 0.1 | 0.01 to 0.1 | ≥ 0.1 | ≥ 0.1 |
| CNS(=O)(=O)c1ccc(Nc2nccc(-n3cccn3)n2)cc1 [Example 23] | ≥ 0.1 | ≥ 0.1 | ≥ 0.1 | ≥ 0.1 |
| CNS(=O)(=O)c1ccc(Nc2ncc(Cl)c(-n3cccn3)n2)cc1 [Example 24] | ≥ 0.1 | 0.01 to 0.1 | ≥ 0.1 | ≥ 0.1 |
| CNS(=O)(=O)c1ccc(Nc2ncc(Br)c(-n3cccn3)n2)cc1 [Example 25] | ≥ 0.1 | ≤ 0.01 | ≥ 0.1 | ≥ 0.1 |
| CNS(=O)(=O)c1ccc(Nc2ncc(C#N)c(-n3cccn3)n2)cc1 [Example 26] | ≥ 0.1 | 0.01 to 0.1 | ≥ 0.1 | ≥ 0.1 |
| CNS(=O)(=O)c1ccc(Nc2ncc(C(F)(F)F)c(-n3cccn3)n2)c(F)c1 [Example 27] | ≥ 0.1 | ≥ 0.1 | ≥ 0.1 | ≥ 0.1 |
| NS(=O)(=O)c1ccc(Nc2ncc(C(F)(F)F)c(-n3cccn3)n2)c(F)c1 [Example 28] | ≥ 0.1 | 0.01 to 0.1 | ≥ 0.1 | ≥ 0.1 |
| CC1(Nc2ncc(C(F)(F)F)c(-n3cccn3)n2)CCN(S(C)(=O)=O)CC1 [Example 29] | ≥ 0.1 | ≥ 0.1 | ≥ 0.1 | ≥ 0.1 |
